Our source for the IC50 values is patent US9340577B2, “HLA binding motifs and peptides and their uses” (priority 1992, dated 2016).

No end group written: not given here.

Common to all, as to assay: biochemical
The target in one assay is DR1 (DRB1*0101) (Homo sapiens, UniProt P01903+P01911, A100R/D57E/F55L/F60I/F76Y/I96L/L162R/M171V/P40L/Q125E/R42F/V115G/Y59C). Format: binding.
The next assay concerns the target DR4w4 (DRB1*0401) (Homo sapiens, UniProt P01903+P01911, A100K/A169T/F76Y/I96L/K127E/L162R/M171V/N62H/P40V/Q125Y/R42H/S133A/S149N/S66Y/V115G/V209L/W38E). It is filed as binding.
A further assay addresses DR7 (DRB1*0701) (Homo sapiens, UniProt P01903+P01911, A100R/A102G/A103Q/D57E/D86V/E43K/F76Y/K127E/L162R/M171V/P40G/Q125H/Q99D/R33Q/R42Y/R54Q/S133A/S66F/T210M/V115G/Y107V/Y59L/Y89S). Format: binding.
The target in the next assay is DRB1*0301 (Homo sapiens, UniProt P01903+P01911, A100K/A102G/A103R/A169T/F55Y/I96L/K41T/L162R/M171V/P40S/Q125H/Q178H/Q39Y/R42S/S66N/T106N/T262R/W38E/Y61H). It is filed as binding.
In a further assay the target is DRB1*0405 (Homo sapiens, UniProt P01903+P01911, A100R/A169T/D86S/F76Y/I96L/K127E/L162R/M171V/N62H/P40V/Q125Y/R42H/S133A/S149N/S66Y/V115G/V209L/W38E). It is filed as binding.
The next assay concerns the target DRB1*0802 (Homo sapiens, UniProt P01903+P01911, A100R/A103L/A169T/F76Y/H45Y/I96F/K41T/L162R/M171V/P40S/Q125H/Q178H/Q39Y/Q99D/R218S/R42G/S66Y/V115G/W38E). Format: binding.
For the next assay, the target named is DRB1*0901 (Homo sapiens, UniProt P01903+P01911, A100R/A103E/D57H/D86V/F55Y/F60I/F76Y/I96F/K127E/L162R/M171V/P40D/Q125H/Q99R/R33Q/R42F/S133A/S66N/T210M/V115G/W38K/Y107V/Y59G/Y89S). Format: binding.
The next assay concerns the target DRB1*1201 (Homo sapiens, UniProt P01903+P01911, A100R/A169T/D57E/D86V/F55L/H45Y/K41T/L162R/M171V/P40S/Q125H/Q178H/Q39Y/Q99D/R42G/S66L/T262R/V114A/V67L/W38E/Y59H/Y61H/Y89S). It is filed as binding.
A further assay addresses DRB1*1302 (Homo sapiens, UniProt P01903+P01911, A100E/A169T/K41T/L162R/M171V/P40S/Q125H/Q178H/Q39Y/Q99D/R42S/S66N/T262R/V115G/W38E/Y61H). It is filed as binding.
For a further assay, the target named is DRB1*1501 (Homo sapiens, UniProt P01903+P01911). It is filed as binding.
A further assay addresses DRB4*0101 (Homo sapiens, UniProt P01903+P13762, G164S). It is filed as binding.
The target in the next assay is DRB1*1101 (Homo sapiens, UniProt P01903+P01911, A100R/A169T/A87E/I96F/K41T/L162R/M171V/P40S/Q125H/Q178H/Q39Y/Q99D/R42S/S66Y/T262R/V115G/W38E). The following applies: Binding affinity DRB1 *1101.
The target in the next assay is DRB5*0101 (Homo sapiens, UniProt P01903+Q30154). The following applies: Binding affinity DRB5 *0101.

Sequence of DRB1*0301 (P01903 26-254 limits assumed, other chains not shown): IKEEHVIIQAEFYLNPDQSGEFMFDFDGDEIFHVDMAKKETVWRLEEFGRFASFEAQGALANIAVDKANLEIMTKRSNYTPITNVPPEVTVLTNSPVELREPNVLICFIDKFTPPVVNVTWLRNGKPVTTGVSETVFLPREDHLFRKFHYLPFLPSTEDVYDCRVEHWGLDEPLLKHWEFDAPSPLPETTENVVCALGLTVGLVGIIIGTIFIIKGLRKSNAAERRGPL
Sequence of DRB1*1101 (P01903 26-254 limits assumed, other chains not shown): as above
Sequence of DRB1*1302 (P01903 26-254 limits assumed, other chains not shown): as above

With DYVLDLQPEATDLHC [Peptide 1543.10], the IC50 at DR1 (DRB1*0101) was 5050 nM; on DR4w4 (DRB1*0401), 35 nM; against DR7 (DRB1*0701), over 20000 nM; against DRB1*0301, 11000 nM; on DRB1*0405, 678 nM; on DRB1*0802 it was over 20000 nM. Moreover, the IC50 against DRB1*0901 is over 20000 nM; on DRB1*1201, 4880 nM; on DRB1*1302 it was over 20000 nM; against DRB1*1501, over 20000 nM; against DRB4*0101, 69 nM; on DRB1*1101, over 20000 nM. Besides, at DRB5*0101, the IC50 was over 20000 nM.
Consider CMLIQPPKLRSTAAA [Peptide 89.0047], for which the IC50 is 2380 nM against DR4w4 (DRB1*0401); 470 nM at DR7 (DRB1*0701); 5760 nM at DRB1*0301; over 20000 nM at DRB1*0405; 2650 nM on DRB1*0802; 7540 nM against DRB1*0901. Besides, the IC50 on DRB1*1201 came out at 3690 nM; against DRB1*1302, 3610 nM; against DRB1*1501 it was 2640 nM; at DRB4*0101, 567 nM; on DRB1*1101, 982 nM; at DRB5*0101, 904 nM.
For the compound VDFIDTQLSICEQAE [Peptide 89.0078], the 50% inhibitory concentration (IC50) was 1280 nM on DR4w4 (DRB1*0401); 426 nM at DR7 (DRB1*0701); 3780 nM at DRB1*0301; 284 nM against DRB1*0405; 7430 nM on DRB1*0802; 6000 nM on DRB1*0901. Moreover, the half-maximal inhibitory concentration (IC50) was 2020 nM on DRB1*1201; 1550 nM on DRB1*1302; 609 nM against DRB1*1501; 471 nM against DRB4*0101; 3920 nM at DRB1*1101; 1520 nM on DRB5*0101.
Turning to GEIYIIEEDTCTMVT [Peptide 90.0202], the IC50 was 1600 nM at DR1 (DRB1*0101); 148 nM at DR4w4 (DRB1*0401); 6600 nM against DR7 (DRB1*0701); 55 nM against DRB1*0301; 8110 nM against DRB1*0405; over 20000 nM against DRB1*0802. For the same compound, the IC50 was over 20000 nM against DRB1*0901; over 20000 nM against DRB1*1201; 426 nM at DRB1*1302; over 20000 nM against DRB1*1501; 322 nM against DRB4*0101; over 20000 nM at DRB1*1101. Moreover, on DRB5*0101, the IC50 was over 20000 nM.
For the compound EVHMENESIYCPDSV [Peptide 90.0238], the concentration for half-maximal inhibition (IC50) against DR1 (DRB1*0101) was 634 nM; against DR4w4 (DRB1*0401) it was 5250 nM; against DR7 (DRB1*0701) it was over 20000 nM; on DRB1*0301, 410 nM; against DRB1*0405 it was over 20000 nM; on DRB1*0802, over 20000 nM. In addition, the IC50 at DRB1*0901 was over 20000 nM; on DRB1*1201, over 20000 nM; against DRB1*1302, 2370 nM; against DRB1*1501, 516 nM; on DRB4*0101, over 20000 nM; at DRB1*1101 it was over 20000 nM. At DRB5*0101, this compound returned an IC50 of over 20000 nM.
Turning to YFKYFKEDAKKYSKT [Peptide 90.0253], the half-maximal inhibitory concentration (IC50) against DR1 (DRB1*0101) was 4010 nM; against DR4w4 (DRB1*0401), 3620 nM; on DR7 (DRB1*0701), over 20000 nM; against DRB1*0301, 108 nM; at DRB1*0405, over 20000 nM; at DRB1*0901, over 20000 nM. The IC50 was over 20000 nM on DRB1*1201; over 20000 nM against DRB1*1302; over 20000 nM on DRB1*1501; over 20000 nM on DRB4*0101; 289 nM on DRB5*0101.
As to RLTVAKLMSNLLSIP [Peptide 89.0065], the half-inhibitory concentration (IC50) against DR1 (DRB1*0101) was 4.3 nM; on DR4w4 (DRB1*0401), 6.2 nM; against DR7 (DRB1*0701), 45 nM; against DRB1*0301, 4150 nM; against DRB1*0405 it was 43 nM; against DRB1*0802, 483 nM. Further, the IC50 against DRB1*0901 stood at 994 nM; on DRB1*1201, 107 nM; at DRB1*1302, 7.2 nM; at DRB1*1501, 9.5 nM; at DRB4*0101 it was 4 nM; on DRB1*1101 it was 62 nM. On DRB5*0101, this compound returned an IC50 of 498 nM.
In the case of IVHLKGDPNSLKCLR [Peptide 90.0255], the IC50 against DR1 (DRB1*0101) was 229 nM; against DR4w4 (DRB1*0401), 83 nM; on DR7 (DRB1*0701) it was over 20000 nM; on DRB1*0301 it was 42 nM; on DRB1*0405 it was over 20000 nM; against DRB1*0802, 2210 nM. For the same compound, the IC50 against DRB1*0901 is over 20000 nM; at DRB1*1201, 4650 nM; against DRB1*1302, 574 nM; on DRB1*1501 it was 7830 nM; against DRB4*0101, 1590 nM; at DRB5*0101 it was 2560 nM.
In the case of DWVMAIFGVNPTVAE [Peptide 89.0079], the concentration for half-maximal inhibition (IC50) stood at 58 nM on DR1 (DRB1*0101); 45 nM on DR4w4 (DRB1*0401); 108 nM against DR7 (DRB1*0701); 431 nM against DRB1*0301; 85 nM against DRB1*0405; 6720 nM against DRB1*0802. In addition, the 50% inhibitory concentration (IC50) on DRB1*0901 came out at 1620 nM; against DRB1*1201, 430 nM; on DRB1*1302, 60 nM; against DRB1*1501 it was 26 nM; against DRB4*0101, 6.5 nM; on DRB1*1101 it was 1820 nM.
In the case of CQAIELQLALEALNK [Peptide 90.0014], the IC50 was 25 nM against DR1 (DRB1*0101); 450 nM against DR4w4 (DRB1*0401); over 20000 nM against DR7 (DRB1*0701); 466 nM on DRB1*0301; 1520 nM on DRB1*0405; 3590 nM on DRB1*0802. The half-inhibitory concentration (IC50) was 1780 nM at DRB1*0901; 1100 nM on DRB1*1201; 214 nM at DRB1*1302; 200 nM on DRB1*1501; 14 nM on DRB4*0101; 3230 nM at DRB1*1101. Further, at DRB5*0101, the 50% inhibitory concentration (IC50) amounted to 1910 nM.
Regarding `CC[C@H](C)[C@H](NC(=O)[C@H](Cc1c[nH]c2ccccc12)NC(=O)[C@H](CCC(=O)O)NC(=O)[C@@H]1CCCN1)C(=O)N[C@@H](CCC(N)=O)C(=O)N[C@@H](CCCNC(=N)N)C(=O)N[C@@H](CCC(N)=O)C(=O)N[C@H](C(=O)N[C@H](C(=O)N[C@@H](CC(C)C)C(=O)N[C@@H](CCC(N)=O)C(=O)N[C@@H](Cc1c[nH]cn1)C(=O)N[C@@H](CO)C(=O)N[C@@H](Cc1ccccc1)C(=O)N[C@@H](CC(N)=O)C(=O)O)C(C)C)[C@@H](C)O` [Peptide 89.0011], the IC50 at DR1 (DRB1*0101) was 2260 nM; at DR4w4 (DRB1*0401), 18 nM; at DR7 (DRB1*0701), 6120 nM; at DRB1*0301 it was 155 nM; at DRB1*0405 it was 259 nM; on DRB1*0802, 213 nM. The half-inhibitory concentration (IC50) came out at 6180 nM at DRB1*0901; 4020 nM at DRB1*1201; 473 nM on DRB1*1302; 8860 nM against DRB1*1501; 4.5 nM against DRB4*0101; 11800 nM on DRB5*0101.
As to RGIIILLLIRFRCSK [Peptide 89.0063], the IC50 against DR1 (DRB1*0101) was 674 nM; against DR4w4 (DRB1*0401), 883 nM; against DR7 (DRB1*0701) it was 721 nM; against DRB1*0301, over 20000 nM; on DRB1*0405, 241 nM; at DRB1*0802, 6420 nM. Moreover, the 50% inhibitory concentration (IC50) against DRB1*0901 is over 20000 nM; against DRB1*1201, 2010 nM; against DRB1*1302 it was 352 nM; at DRB1*1501 it was 431 nM; at DRB4*0101 it was 283 nM; at DRB5*0101, over 20000 nM.
On to LKAICIENNSKTAKR [Peptide 90.0064], for which the IC50 on DR1 (DRB1*0101) was 62 nM; against DR4w4 (DRB1*0401), 36 nM; on DR7 (DRB1*0701), 6350 nM; at DRB1*0301, 86 nM; on DRB1*0405, 369 nM; against DRB1*0901, over 20000 nM. In addition, the IC50 at DRB1*1201 amounted to 4580 nM; against DRB1*1302, 144 nM; on DRB1*1501, 359 nM; on DRB4*0101, 85 nM.

Usually IC50 stands for the concentration at which inhibition is half-maximal.
